Measured values taken from patent US7777049B2, “Crystalline forms of Rizatriptan benzoate” (ratiopharm GmbH, priority 2004, dated 2010).

Assay: Suspension equilibration of a Form A / Form B mixture in ethyl acetate, product identified by X-ray powder diffraction
Format: physicochemical
Settings: 7 mg Form A and 7 mg Form B suspended in 1 ml ethyl acetate, stirred 16 hours at 25° C.; Form A obtained by XRPD
Procedure: 7 mg rizatriptan benzoate Form A and 7 mg Form B are suspended in 1 ml ethyl acetate, and stirred 16 hours at 25° C. After filtration, a white powder is obtained.
X-ray powder diffraction measurements were performed on a Philips 1710 powder X-ray diffractometer using Cu Kα radiation (Cu Kα1=1.54060 Å). The X-ray source is operated at 45 kV and 45 mA. Spectra are recorded at a step size of 0.02° with a counting time of 2.4 seconds per step. The accuracy of the 2 theta values of conventionally recorded powder X-ray diffraction patterns is generally ±0.1-0.2°. For sample preparation, about 40 mg of substance was prepared into circular shaped quartz sample holders of 0.5 mm depth and 10 mm width.

SMILES | relative thermodynamic stability of the crystalline form
CN(C)CCc1c[nH]c2ccc(Cn3cncn3)cc12 [Form A, N,N-dimethyl-5-(1H-1,2,4-triazol-1-ylmethyl)-1H-indole-3-ethanamine benzoate] | thermodynamically most stable form
CN(C)CCc1c[nH]c2ccc(Cn3cncn3)cc12 [Form B, N,N-dimethyl-5-(1H-1,2,4-triazol-1-ylmethyl)-1H-indole-3-ethanamine benzoate] | metastable form
